Measured values reported in patent US20020182260A1, “Anti-inflammatory agents and methods for their preparation and use” (Cellegy Pharmaceuticals, Inc., priority 1998, published 2002).
Where two headings read alike, the source gives them in different places.

How the values were obtained:
Type in all cases: cell-based
[1] = test system: B-lymphocytes isolated from mouse spleen; assay: B-lymphocyte proliferation assay (LPS, [3H]thymidine incorporation); conditions: B-cell, read-out: IC50, suppression of B-cell proliferation
Procedure: B-lymphocytes were isolated from mouse spleen by standard methods, and suspended in DMEM. A total of 10^6 cells/ml were incubated overnight at 37° C. in the presence of 1 μg/ml lipopolysaccharide (LPS) to assess stimulation (positive score, related to control) or suppression (negative score, related to control) of cell proliferation. Test substances were evaluated under these conditions at a pre-defined concentration. After overnight incubation, 2 μCi [^3H]thymidine was added to each well. Cells were harvested. after an additional 48 hours incubation, and thymidine incorporation assessed by liquid scintillation counting.

[2] = test system: T-lymphocytes isolated from mouse thymus; assay: T-lymphocyte proliferation assay (Con A, [3H]thymidine incorporation); conditions: read-out: IC50, suppression of T-cell proliferation
Procedure: T-lymphocytes were isolated from mouse thymus by standard methods, and suspended in DMEM (see, e.g., Mishell B B and Shiigi S M, eds., “Cell Proliferation” in Selected Methods in Cellular Immunology, V, XXIX, W. H. Freeman Co., San Francisco, Calif. pp. 153-160, 1980 and Dayton et al. (1992) Mol. Pharmacol. 41: 671-676). A total of 5×10^6 cells/ml were incubated overnight at 37° C. in the presence of 3 μg/ml Con A to assess stimulation (positive score, related to 10 U/ml of rat interleukin-2) or suppression (negative score, related to control) of cell proliferation. Test substances were evaluated under these conditions at a pre-defined concentration. After overnight incubation, 2 μCi [^3H]thymidine was added to each well. Cells were harvested after an additional 48 hours incubation, and thymidine incorporation assessed by liquid scintillation counting.
All 40 fractions were subsequently tested in the ConA-induced T-cell proliferation assay, the same assay described in Example 4. Fractions providing greater than or equal to 40% suppression are considered active.

[3] = test system: IL-2 production from human PBMC; assay: inhibition of PHA-stimulated IL-2 production; conditions: PHA 20 μg/mL, 48 hours, positive control
Procedure: In this example, the ability of lanolin fractions to inhibit PHA-stimulated IL-2 production from human peripheral blood mononuclear cells (PBMCs) was assayed. IL-2 production from human PBMC was stimulated by phytohemagglutanin (20 μg/mL) based on a procedure described by Konno et al. (Konno S. I. et al. “Inhibition of Cytokine Production from Human Peripheral Blood Leukocytes by Anti-allergic Agents in vitro.” Eur. J. Pharmacol, 264:265-268, 1994) wherein IL-2 levels were measured 48 hours post-stimulation with a commercially available enzyme-immuno assay (EIA) kit and spectrophotometric measurements were performed with a microplate reader (MRX, Dynatech.) The various compositions of the present invention were tested at final concentrations of […], in duplicate. Dexamethasone was used as the positive control in these studies; the IC50 of dexamethasone was 5 nM. The levels of suppression caused by the test compounds are expressed as the percent decrease relative to the vehicle control values.

[4] = test system: TNF-α production by human PBMCs; assay: inhibition of LPS-stimulated TNF-α production; conditions: PBMC, LPS 1 μg/mL, 24 hours, positive control
Procedure: TNF-α production by human PBMCs was stimulated using lipopolysaccharide (1 μg/mL) based on a procedure by Schindler et al. (Schindler R et al. Correlations and Interactions in the Production of Interleukin (IL)-6, IL-1, and Tumor Necrosis Factor (TNF) in Human Blood Mononuclear Cells: IL-6 Suppresses IL-1 and TNF. Blood, 75:40-47, 1990). The levels of TNF-α were measured 24 hours following LPS stimulation with a commercially available enzyme-immuno assay (EIA) kit and spectrophotometric measurements were performed with a microplate reader (MRX, Dynatech). The compositions of the present invention were tested in this study were 1, 10, and 50 μg/mL in duplicate. […] The suppression caused by test compounds is expressed as the percent decrease relative to the vehicle control value.

For `Cn1cnc([N+](=O)[O-])c1Sc1ncnc2nc[nH]c12` [azathioprine], the IC50 ([1]; compounds known to suppress) was > 10 µM and the IC50 ([2]; positive controls) was > 10 µM.
`O=P1(N(CCCl)CCCl)NCCCO1` (stereo not drawn) [cyclophosphamide] was tested, and the IC50 [1] was > 10 µM and the IC50 [2] was > 10 µM.
`C[C@@H]1C[C@H]2[C@@H]3CCC4=CC(=O)C=C[C@]4(C)[C@@]3(F)[C@@H](O)C[C@]2(C)[C@@]1(O)C(=O)CO` [dexamethasone] showed an IC50 [3] of 0.005 µM and an IC50 [4] of ~0.016 µM.
